The test system of assay [1] is histone-deacetylase (HDAC) inhibitor query signature. Kind of assay: L1000 analog of Connectivity Map (1,000 landmark transcripts by LMF plus inference) queried with an HDAC-inhibitor query signature. The class given is cell-based, human. The conditions noted are these: L1000 dataset, MCF7 cells; published HDAC-inhibitor query signature (Glaser et al.); n=8, p-value<0.001; highest scoring perturbagen. The source says: This example described one method for the generation of transcriptome-wide gene-expression profiles using measurement of the expression levels of a sub-transcriptome number of cluster centroid landmark transcripts. The present method uses the LMF moderate multiplex gene-expression analysis platform described by Peck et al. (“A method for high-throughput gene expression signature analysis” Genome Biology 7:R61 2006), the Luminex FlexMAP 3D optically-addressed microspheres and flow-cytometric detection system, 1,000 cluster centroid landmark transcripts (and corresponding gene-specific sequences) validated for LMF from Example III (above), a corresponding dependency matrix from Example III (above), 50 empirically-determined invariant transcripts with expression levels spanning the range of those observed, and 1,050 barcode sequences developed. The FlexMAP 3D system allows simultaneous quantification of 500 distinct analytes in samples arrayed in the wells of a 384-well plate. […]
MCF7 cells were treated with small molecules and corresponding vehicles in 384-well plates. […] The captured amplicons were labeled with phycoerythrin and the resulting microsphere populations were analyzed using a FlexMAP 3D instrument in accordance with the manufacturer's instructions. […]

The test system is the same in assay [2]. Kind of assay: Original Connectivity Map (Affymetrix microarrays) queried with an HDAC-inhibitor query signature. It is filed as cell-based, human. The conditions noted are these: published HDAC-inhibitor query signature (Glaser et al.), n=12, p-value<0.001, highest score. The text has this:
The term “Connectivity Map” as used herein, refers to a public database of transcriptome-wide gene-expression profiles derived from cultured human cells treated with a plurality of perturbagens, and pattern-matching algorithms for the scoring and identification of significant similarities between those profiles and external gene-expression data, as described by Lamb et al., “The Connectivity Map: using gene-expression signatures to connect small molecules, genes and disease”. Science 313:1929 (2006). Build02 of the Connectivity Map contains 7,056 full-transcriptome gene-expression profiles generated with Affymetrix high-density oligonucleotide microarrays representing the biological effects of 1,309 small-molecule perturbagens, and is available at broadinstitute.org/cmap.
The term “enrichment score” as used herein, refers to a measure of the similarity of the biological effects of a perturbagen used to generate a query signature with those of a perturbagen represented in the Connectivity Map based upon the gene-expression profiles of multiple independent treatments with that perturbagen. […]

Assay [3] concerns canonical NF-κB signaling pathway (BIOCARTA_NFKB_PATHWAY). Kind of assay: Gene-Set Enrichment Analysis of L1000 profiles from macrophages treated with LPS. It is filed as cell-based. The note with it: primary human macrophages, LPS versus vehicle control; L1000 inferred profiles; 512 gene sets tested; p<0.001. As for the experimental part:
The expression levels of 1,000 cluster centroid transcripts were measured in primary human macrophages following treatment with lipopolysaccharide (LPS) or vehicle control, and used to create gene-expression profiles composed of expression levels for 22,268 transcripts, according to the L1000 methods described in Example IV.
LPS is known to be a potent activator of the NF-KB transcription-factor complex (Qin et al., “LPS induces CD40 gene expression through the activation of NF-κB and STAT-1a in macrophages and microglia” Blood 106: 3114-3122 2005).

Consider `O=C(CCCCCCC(=O)Nc1ccccc1)NO` [vorinostat], for which the results for the enrichment score in assay [1] and in assay [2] were 0.921 and 0.973, respectively.

Regarding lipopolysaccharide [LPS], the “GSEA score of the BIOCARTA_NFKB_PATHWAY gene set (23 members)” value in assay [3] is recorded as “highest score of all gene sets tested”.

The values are drawn from patent US10619195B2, “Gene-expression profiling with reduced numbers of transcript measurements” (Massachusetts Institute of Technology, priority 2010, dated 2020).
